Data: patent US6713511B1, “Fatty acid derivatives” (priority 1998, dated 2004)
Read-outs that look alike come from different tables or passages of the source.

Key:
Assay type in all cases: in vivo, rat
[1] = tested on: rats with unilateral caudate nucleus (striatum) lesion
Text: One of the major behavioral methods to measure the increase in dopamine activity in the brain is rotational behavior. Dopamine is the neurotransmitter in the striatum. The striatum controls motor movements and motor integration. In the brain there are two striata, in the right and left hemispheres, respectively. Unilateral ablation of a striatum will result in walking in circles, as the intact striatum is still functioning; Ungerstadt, U. et al., Brain Res., 1970, 24: 485-492, created a lesion in one striatum and measured the effect on rotational behavior. Since then, this technique has been used to screen molecules, such as stimulants or potential anti-Parkinson drugs, which induce increase in dopaminergic activity.
Groups of 6 male Sprague-Dawley rats (Charles River Laboratories, Wilmington, Mass.) weighing 100-120 g, were housed 6 per cage in a well-ventilated and air-conditioned room of ambient temperature (22±2° C.) and relative humidity 45%. The rats had access to food (Big Red Laboratory Chow, Agway Inc., Syracuse, N.Y.) and water ad libitum. Light (“Vita Light”, Duro Test Corp., North Bergen, N.J.) was provided between 9 am and 9 pm.
All surgery was performed under anesthesia (sodium pentobarbital, 50 mg/ml, as required). The rats were placed in a Kopf stereotaxic instrument (model #900). Unilateral anodal electrolytic lesions were made with constant current supply (lesion-producing device #58040, Stoelting, Chicago, Ill.). Current (2.0 mV for 10 seconds) was passed through stainless steel insulated wire pe 32, 0.008 inches diameter (“Formax”, Stoelting, Chicago, Ill.), bared only at the tip. […]
Rotational behavior was tested in a rotameter, modified from the design of Ungerstedt et al., 1970. […] The potentiometer (preamplifier 8805 A) measured and recorded the changes in the amount of current which passed through it, resulting from the rotational movements of the rats. […]
Each rat was placed in the rotameter and treated with an i.p. injection of saline or (I) (10 mg/kg) as prepared above. […] The frequency of turning was measured between 30-40 minutes post-injection. […]

[2] = tested on: rats challenged with Ro4-1284; test: Ro4-1284-induced blephrospasm model
Text: This is an involuntary spasm of the orbicular muscles of the eye, causing forceful closure of the eyes. Symptomatically there is a significant increase in the rate of eyelid closures/min. This phenomenon is regarded as a type of dystonia, a decrease in the brain dopamine level being the etiology of this syndrome. Ro4-1284 is a powerful dopamine-depleting agent. In saline-treated animals, Ro4-1284 is able to induce an animal model of benign essential blephrospasm. Groups of rats similar to those described above were treated daily for 14 days with 25 mg/kg (II), i.p., and then were challenged with a dose of 40 mg/kg Ro4-1284, i.p. The results of this test were shown in the following Table.

[3] = tested on: rats with unilateral caudate nucleus (striatum) lesion; test: Rotational behavior in rats with unilateral striatum lesion, testing of (II)
Protocol: Three groups of 12 male Sprague-Dawley rats (Charles River Laboratories, Wilmington, Mass.) weighing 100-150 g, were housed 6 per cage in a well-ventilated and air-conditioned room of ambient temperature (22±2° C.) and relative humidity 45%. The rats had access to food (Big Red Laboratory Chow, Agway Inc., Syracuse, N.Y.) and water ad libitum. Light (“Vita Light”, Duro Test Corp., North Bergen, N.J.) was provided between 9 am and 9 pm. These groups were used for rotational study, the dosage of (II) being 100 mg/kg, i.p.
One group served as a control group (no treatment), a second group was a sham operated group, and a third group was the operated group. All surgery was performed under anesthesia (sodium pentobarbital, 50 mg/ml, as required). The rats were placed in a Kopf stereotaxic instrument (model #900). Unilateral anodal electrolytic lesions were made with constant current supply (lesion-producing device #58040, Stoelting, Chicago, Ill.). Current (2.0 mV for 10 seconds) was passed through stainless steel insulated wire pc 32, 0.008 inches diameter (“Formax”, Stoelting, Chicago, Ill.), bared only at the tip. The coordinates (modified from Konig and Klippel, 1963) for caudate nucleus lesion were: A 8.5, L 2.2, V+1.8. The lesions were made in the left side of the brain. Sham operated animals were treated as lesioned animals, i.e. they were placed in the stereotaxic instrument and an electrode was placed in the brain, but without passing electric current therethrough. After surgery, each rat was placed in an individual cage. Tests were made at day 10 after surgery. At the end of the experiment, each rat was given an overdose of pentobarbital and perfused with saline, followed by 10% formalin. Brains were removed and serial coronal slices were made at 40 micra, using a freezing microtome. Representative slides were stained with Cresyl Violet for verification of the lesion.
Details of the procedure with regard to determination of rotational behavior were substantially as described above for testing (I).

[4] = lesioned rats, 100 mg/kg i.p., day 10 after surgery

## CC/C=C\C/C=C\C/C=C\CCCCCCCC(=O)N[C@@H](Cc1ccc(O)cc1)C(=O)O [(I), N-(α-linolenoyl)tyrosine]
[1]; lesioned rats, 10 mg/kg i.p., 30-40 minutes post-injection, day 4 after surgery, increased from 4 cycles/minute
  rate of rotational motion: 40 cycles/minute
[1]; rat, in vivo
  crossing of the blood-brain barrier: cross the blood-brain barrier
[1]; rat, in vivo, ip, 10 mg/kg
  abnormal behavior (stereotype): not found

## CC/C=C\C/C=C\C/C=C\CCCCCCCC(=O)N[C@@H](Cc1ccc(O)cc1)C(=O)OC [(II), N-β-linolenyltyrosine Methyl Ester]
[2]; 25 mg/kg (II) i.p. daily for 14 days, then Ro4-1284 40 mg/kg i.p., 30 minutes after Ro4-1284, p < 0.001
  rate of eyelid blinking/min.: 5.00 ± 1.95 min⁻¹
[3]; conclusion drawn from the behavioral testing
  crossing of the blood-brain barrier: cross the blood-brain barrier
[3]; [4]
  % L: 98%
  % R: 2%
  L (turns to the left): 98
  L + R: 100
  R (turns to the right): 2

## CCC1(O)CC2c3cc(OC)c(OC)cc3CCN2CC1CC(C)C (centres unmarked) [Ro4-1284, reference compound]
[2]; Ro4-1284 40 mg/kg i.p. alone, 30 minutes after treatment with Ro4-1284
  rate of eyelid blinking/min.: 19.08 ± 3.4 min⁻¹
